# Measurements: ChEMBL document CHEMBL3046751, “Effects of Pyridalyl on ATP Concentrations in Cultured Sf9 Cells” (J Pestic Sci, 2005)
# Activity calls are given as the source filed them. The rule behind the calls is not given here.
# Tests used:
# Assay type in all cases: functional, cell-based
# Sf9 [1] = assay: Reduction of ATP level in Spodoptera frugiperda (fall armyworm) Sf9 cells at 0.1 to 10 uM after 4 hr by luminescent cell viability assay
# Sf9 [2] = assay: Reduction of ATP level in Spodoptera frugiperda (fall armyworm) Sf9 cells after 20 to 24 hr by luminescent cell viability assay
# Sf9 [3] = assay: Reduction of ATP level in Spodoptera frugiperda (fall armyworm) Sf9 cells at 1 to 10 uM after 4 hr by luminescent cell viability assay
# Sf9 [4] = assay: Cytotoxicity against Spodoptera frugiperda (fall armyworm) Sf9 cells at 0.01 uM
# Sf9 [5] = assay: Reduction of ATP level in Spodoptera frugiperda (fall armyworm) Sf9 cells at 0.1 uM after 24 hr by luminescent cell viability assay
# Sf9 [6] = assay: Reduction of ATP level in Spodoptera frugiperda (fall armyworm) Sf9 cells at 0.01 uM after 24 hr by luminescent cell viability assay
# Sf9 [7] = assay: Reduction of ATP level in Spodoptera frugiperda (fall armyworm) Sf9 cells at 10 uM after 2 hr by luminescent cell viability assay
# Sf9 [8] = assay: Reduction of ATP level in Spodoptera frugiperda (fall armyworm) Sf9 cells at 1 uM after 8 hr by luminescent cell viability assay
# Sf9 [9] = assay: Reduction of ATP level in Spodoptera frugiperda (fall armyworm) Sf9 cells at 1 to 10 uM after 20 to 24 hr by luminescent cell viability assay
# Sf9 [10] = assay: Reduction of ATP level in Spodoptera frugiperda (fall armyworm) Sf9 cells at 10 uM after 4 hr by luminescent cell viability assay
# Sf9 [11] = assay: Reduction of ATP level in Spodoptera frugiperda (fall armyworm) Sf9 cells at 0.01 to 10 uM after 4 hr by luminescent cell viability assay
# Sf9 [12] = assay: Reduction of ATP level in Spodoptera frugiperda (fall armyworm) Sf9 cells at 10 uM after 6 to 24 hr by luminescent cell viability assay
# Sf9 [13] = assay: Reduction of ATP level in Spodoptera frugiperda (fall armyworm) Sf9 cells at 0.1 to 1 uM after 6 to 24 hr by luminescent cell viability assay
# Sf9 [14] = assay: Increase of ATP level in Spodoptera frugiperda (fall armyworm) Sf9 cells at 10 uM after 6 to 24 hr by luminescent cell viability assay
structure (smiles),measurement,setting,value
N#CC(C#N)=NNc1ccccc1Cl,Activity,Sf9 [1],Active
same,Activity,Sf9 [2],Dose-dependent effect
CCOCn1c(-c2ccc(Cl)cc2)c(C#N)c(Br)c1C(F)(F)F,Activity,Sf9 [2],Dose-dependent effect
same,Activity,Sf9 [3],Active
FC(F)(F)c1ccc(OCCCOc2c(Cl)cc(OCC=C(Cl)Cl)cc2Cl)nc1,Activity,Sf9 [4],inactive
same,Activity,Sf9 [5],Active
same,Activity,Sf9 [6],inactive
same,Activity,Sf9 [7],Active
same,Activity,Sf9 [8],Active
same,Activity,Sf9 [9],Active
same,Activity,Sf9 [2],Dose-dependent effect
CCCCCCCCCCCCC1=C(OC(C)=O)C(=O)c2ccccc2C1=O,Activity,Sf9 [2],Dose-dependent effect
same,Activity,Sf9 [10],Active
Cc1nn(C)c(Oc2ccccc2)c1/C=N/OCc1ccc(C(=O)OC(C)(C)C)cc1,Activity,Sf9 [11],inactive
C=C(C)[C@H]1Cc2c(ccc3c2O[C@@H]2COc4cc(OC)c(OC)cc4[C@@H]2C3=O)O1,Activity,Sf9 [1],inactive
O=c1[nH]cc(F)c(=O)[nH]1,Activity,Sf9 [12],inactive
COc1ccc(C[C@H]2NC[C@H](O)[C@H]2OC(C)=O)cc1,Activity,Sf9 [13],inactive
same,Activity,Sf9 [14],Active
